# Results reported in ChEMBL document CHEMBL1153927, “Benzimidazolone-based serotonin 5-HT1A or 5-HT7R ligands: synthesis and biological evaluation” (Bioorg Med Chem Lett, 2009).
# Columns and labels:
# [1] = molecular target: 5-hydroxytryptamine receptor 7 (Homo sapiens, UniProt P34969); assay: Inhibition of human 5HT7 receptor expressed in HEK293 cells by competitive binding assay; type: cell-based
# [2] = molecular target: T1, 5-hydroxytryptamine receptor 1A (Rattus norvegicus, UniProt P19327); assay: Inhibition of rat hippocampus 5HT1A receptor by competitive binding assay; type: tissue-based
# T1 sequence (P19327 whole entry): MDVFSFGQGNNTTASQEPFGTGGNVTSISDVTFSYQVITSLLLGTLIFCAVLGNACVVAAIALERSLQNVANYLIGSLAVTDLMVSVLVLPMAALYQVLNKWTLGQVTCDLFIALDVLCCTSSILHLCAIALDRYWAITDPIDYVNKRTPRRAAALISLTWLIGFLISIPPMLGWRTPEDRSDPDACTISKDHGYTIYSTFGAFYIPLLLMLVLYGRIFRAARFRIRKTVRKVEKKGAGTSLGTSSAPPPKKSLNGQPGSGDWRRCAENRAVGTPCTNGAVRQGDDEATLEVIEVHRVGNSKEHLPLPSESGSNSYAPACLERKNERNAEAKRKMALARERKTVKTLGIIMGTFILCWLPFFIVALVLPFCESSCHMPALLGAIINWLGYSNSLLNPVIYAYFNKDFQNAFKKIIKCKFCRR
# Chain of 5-hydroxytryptamine receptor 7 (P34969 whole entry): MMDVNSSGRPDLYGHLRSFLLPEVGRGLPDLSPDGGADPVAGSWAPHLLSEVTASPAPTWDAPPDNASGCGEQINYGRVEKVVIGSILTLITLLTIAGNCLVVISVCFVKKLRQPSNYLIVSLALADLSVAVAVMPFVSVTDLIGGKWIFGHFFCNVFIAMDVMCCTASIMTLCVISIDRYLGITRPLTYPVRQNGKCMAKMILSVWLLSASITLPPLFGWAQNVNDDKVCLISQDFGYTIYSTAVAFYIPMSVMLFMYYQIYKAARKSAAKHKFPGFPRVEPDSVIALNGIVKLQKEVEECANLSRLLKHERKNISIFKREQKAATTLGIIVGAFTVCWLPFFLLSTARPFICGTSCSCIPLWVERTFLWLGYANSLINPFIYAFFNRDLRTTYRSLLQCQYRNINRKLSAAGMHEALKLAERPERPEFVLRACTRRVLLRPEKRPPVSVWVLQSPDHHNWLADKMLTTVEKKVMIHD
Structure (SMILES),Ki [1],Ki [2]
O=c1[nH]c2ccccc2n1CCN1CCN(c2ccccc2)CC1,1.03 µM,0.392 µM
COc1ccccc1N1CCN(CCCCCCn2c(=O)[nH]c3ccccc32)CC1,0.078 µM,0.012 µM
O=c1[nH]c2ccccc2n1CCCCCCN1CCN(c2ccccc2)CC1,0.02 µM,0.048 µM
O=c1[nH]c2ccccc2n1CCCN1CCN(c2ccccc2)CC1,0.243 µM,0.026 µM
COc1ccccc1N1CCN(CCCn2c(=O)[nH]c3ccccc32)CC1,0.04 µM,0.0034 µM
O=c1[nH]c2ccccc2n1CCCCCN1CCN(c2cccc(Cl)c2)CC1,0.011 µM,0.066 µM
Cc1ccccc1-n1c(=O)n(CCN2CCN(c3ccccc3)CC2)c2ccccc21,0.902 µM,0.636 µM
COc1ccc(-n2c(=O)n(CCN3CCN(c4ccccc4OC)CC3)c3ccccc32)cc1,0.296 µM,0.022 µM
Cc1ccccc1N1CCN(CCn2c(=O)n(-c3ccccc3C)c3ccccc32)CC1,18 µM,0.375 µM
COc1ccc(-n2c(=O)n(CCN3CCN(c4ccccc4)CC3)c3ccccc32)cc1,0.566 µM,0.34 µM
COc1ccc(-n2c(=O)n(CCCCN3CCN(c4ccccc4OC)CC3)c3ccccc32)cc1,0.267 µM,0.036 µM
O=c1n(CCN2CCN(c3ccccc3)CC2)c2ccccc2n1-c1ccccc1,1.23 µM,0.467 µM
COc1ccccc1N1CCN(CCCCCn2c(=O)[nH]c3ccccc32)CC1,0.038 µM,0.033 µM
COc1cccc(-n2c(=O)n(CCN3CCN(c4ccccc4C)CC3)c3ccccc32)c1,2.5 µM,0.182 µM
COc1ccccc1N1CCN(Cc2ccn(-c3ccccc3C)c2)CC1,0.0043 µM,
COc1ccccc1N1CCN(CCn2c(=O)[nH]c3ccccc32)CC1,1.84 µM,0.025 µM
Cc1ccccc1N1CCN(CCn2c(=O)n(-c3ccccc3)c3ccccc32)CC1,1.87 µM,0.168 µM
COc1cccc(-n2c(=O)n(CCN3CCN(c4ccccc4)CC3)c3ccccc32)c1,0.864 µM,0.646 µM
COc1ccc(-n2c(=O)n(CCCN3CCN(c4ccccc4OC)CC3)c3ccccc32)cc1,0.168 µM,0.026 µM
O=c1[nH]c2ccccc2n1CCCCCN1CCN(c2ccc(Cl)cc2)CC1,0.007 µM,0.454 µM
O=c1[nH]c2ccccc2n1CCCCCN1CCN(c2ccccc2)CC1,0.006 µM,0.269 µM
COc1ccccc1N1CCN(CCCCn2c(=O)[nH]c3ccccc32)CC1,0.026 µM,0.006 µM
O=c1[nH]c2ccccc2n1CCCCN1CCN(c2ccccc2)CC1,0.048 µM,0.084 µM
